Measured values taken from patent US8461183B2, “PPAR agonist compounds, preparation and uses” (Genfit, priority 2008, dated 2013).

Assays:
[1] = target: T1, hPPARα (Homo sapiens, UniProt Q07869); test: Gal4-hPPARα chimera transactivation (luciferase) in COS-7 cells; format: cell-based; details: COS-7 cells, Gal4-hPPARα, 24 hours; for EC50: luciferase, read-out: PPARα EC50; for Emax: relative to maximum activation obtained with fenofibric acid, read-out: PPARα TOP % (maximum activation)
T1 construct: corresponding to the DEF domains (structural elements of the promoter of the PPARs: D=hinge, EF=ligand fixation domain and AF2 fixation site); expressed in transfected cells; host or cells: COS-7 (monkey kidney fibroblasts)
T1 sequence (Q07869 239-466 limits assumed): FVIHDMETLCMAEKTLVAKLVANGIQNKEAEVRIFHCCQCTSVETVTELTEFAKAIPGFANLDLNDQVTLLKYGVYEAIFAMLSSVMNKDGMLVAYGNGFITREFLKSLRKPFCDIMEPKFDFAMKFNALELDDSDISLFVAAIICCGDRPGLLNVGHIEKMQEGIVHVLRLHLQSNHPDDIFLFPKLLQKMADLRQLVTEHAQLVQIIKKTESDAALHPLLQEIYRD
Method in brief: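 COS-7 cells transiently co-transfected with Gal4 DBD–human PPARα, γ or δ DEF-domain chimeras plus Gal4(RE)_TkpGL3 luciferase reporter (1/10), seeded serum-free, then compound-treated 24 h at 37 °C in 1% Ultroser. Luciferase read after lysis; EC50 and TOP % relative to maximal activation by fenofibric acid (α), rosiglitazone (γ) or GW501516 (δ).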

[2] = test system: 3T3-L1 murine pre-adipocytes; test: PPARγ functional effect: adipogenesis in 3T3-L1 pre-adipocytes (triglycerides, adiponectin); format: cell-based, Mus musculus; details: 3T3-L1, 9 days of treatment, 30 nM to 30 μM
Method: The functional effect of activation of PPARγ is evaluated in vitro on a line of pre-adipocyte cells 3T3-L1 (Thompson G M et al., 2004) by measuring the concentration of intracellular triglycerides and the concentration of adiponectin secreted in the culture medium after 9 days of treatment with the compounds according to the invention.
At confluence, the cells were then rinsed with PBS (Phosphate Buffered Saline solution) and the culture medium was replaced with DMEM 4.5 g/L glucose (10% FCS, 1% L-glutamine, 100 units/mL penicillin and 100 μg/mL streptomycin, 0.25 mM) containing a cocktail for initiation of adipocyte differentiation (IBMX (3-isobutyl-1-methylxanthine Sigma; 17018), 0.1 μM dexamethasone (Sigma; D1756) and 0.4 μM of insulin (Sigma; I2643). The cells were also treated with the compounds according to the invention (1 μL of solubilized compound/mL of medium, 200 μL per well).
After 2 days of incubation, the cells were washed with PBS and the differentiation medium was replaced with DMEM 4.5 g/L of glucose supplemented with 10% FCS, 1% L-glutamine, 100 units/mL penicillin and 100 μg/mL streptomycin, 0.4 μM insulin, and the compounds according to the invention for the purpose of completing cellular differentiation and obtaining adipocytes. The medium was changed every 2 days until total differentiation. After culture for 9 days, the treatment was stopped by withdrawing the culture medium, which was stored for assaying secreted adiponectin. The cells were then washed twice with PBS and placed in isopropanol for membrane permeabilization. The content of intracellular triglycerides was evaluated immediately.
Quantification of intracellular triglycerides was performed with the “Triglyceride Enzymatic PAP1000” kit (bioMérieux; 61238) according to the supplier's recommendations. Secreted adiponectin was measured in the culture medium using the “Mouse Adiponectin/Acrp30 Elisa Kit” kit (R&D Systems; DY1119) according to the supplier's recommendations.

Row | SMILES | EC50 [1] | Emax [1] | accumulation of triglycerides in adipocytes [2] | secretion of adiponectin [2]
1 | COc1nc(-c2ccccc2)ccc1COc1ccc(OCC(=O)O)cc1 [Cpd 2, 2-(4-((2-methoxy-6-phenylpyridin-3-yl)methoxy)phenoxy)ethanoic acid] | 143 nM | 48.3% | – | –
2 | COc1nc(-c2ccccc2)ccc1CNc1ccc(CCC(=O)O)cc1 [Cpd 19, 3-(4-(((2-methoxy-6-phenylpyridin-3-yl)methyl)amino)phenyl)propanoic acid] | 2370 nM | 68% | dose-dependent stimulation | dose-dependent stimulation
3 | COc1nc(-c2ccc(C(F)(F)F)cc2)ccc1COc1ccc(OCC(=O)O)cc1 [Cpd 24, 2-(4-((2-methoxy-6-(4-(trifluoromethyl)phenyl)pyridin-3-yl)methoxy)-phenoxy)ethanoic acid] | 371 nM | 76.8% | dose-dependent stimulation | dose-dependent stimulation
4 | COc1nc(-c2ccccc2)ccc1CNc1ccc(OCC(=O)O)cc1 [Cpd 4, 2-(4-(((2-methoxy-6-phenylpyridin-3yl)methyl)amino)phenoxy)ethanoic acid] | 1470 nM | 66.7% | – | –
